According to patent publication US20230114728A1 (Venatorx Pharmaceuticals, Inc., priority 2019, published 2023):
Converted amounts (≈) assume the structure as drawn.

Columns and labels:
[1] = Bocillin-FL fluorescence polarization competition binding assay, A. baumannii PBP3; settings: fluorescence polarization competition binding assay using Bocillin-FL; column 3; read-out: 4. baumannii PBP1a Potency
In short: (§1)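 Fluorescence polarization (ex 490/em 520 nm) competition of inhibitors against Bocillin-FL at 0.1 μM, read up to 60 min. Final PBP levels: E. coli PBP3 1.5 μM; A. baumannii PBP2 2.5 μM, PBP3 0.2 μM in Tris pH 8.0/NaCl/glycerol/Tween 20; N. gonorrhoeae PBP2 […] in Hepes pH 8.0/NaCl/glycerol. EC50 = concentration halving PBP-bound Bocillin-FL.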

N. gonorrhoeae PBP2 = molecular target: T1, N. gonorrhoeae PBP2 (Neisseria gonorrhoeae, UniProt P08149); assay: Bocillin-FL fluorescence polarization competition binding assay, N. gonorrhoeae PBP2; settings: fluorescence polarization competition binding assay using Bocillin-FL; read-out: N. gonorrhoeae PBP2 Potency
T1 construct: made in house
T1 sequence (P08149 whole entry): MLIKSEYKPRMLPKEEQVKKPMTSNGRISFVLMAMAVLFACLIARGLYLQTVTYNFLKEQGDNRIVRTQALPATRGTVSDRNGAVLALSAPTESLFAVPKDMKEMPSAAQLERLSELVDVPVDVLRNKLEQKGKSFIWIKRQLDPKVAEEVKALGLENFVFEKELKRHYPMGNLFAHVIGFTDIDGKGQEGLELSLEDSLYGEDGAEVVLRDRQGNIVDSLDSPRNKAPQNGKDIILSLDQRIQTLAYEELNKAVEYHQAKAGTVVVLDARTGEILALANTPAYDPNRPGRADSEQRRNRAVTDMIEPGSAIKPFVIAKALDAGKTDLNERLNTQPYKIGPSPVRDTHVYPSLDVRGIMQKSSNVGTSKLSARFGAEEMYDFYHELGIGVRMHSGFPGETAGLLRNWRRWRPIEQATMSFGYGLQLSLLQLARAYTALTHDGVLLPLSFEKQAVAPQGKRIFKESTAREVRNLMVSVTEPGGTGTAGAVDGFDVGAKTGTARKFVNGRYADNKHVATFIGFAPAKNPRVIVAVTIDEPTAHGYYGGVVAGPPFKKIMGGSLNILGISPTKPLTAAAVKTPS
In short: as §1

A. baumannii ATCC 19606 = assay: Broth microdilution MIC in iron-depleted CAMHB (IDM); format: cell-based; settings: Acinetobacter baumannii, ATCC19606, read-out: Minimum Inhibitory Concentration, ATCC 19606
In short: (§2)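 IDM = CAMHB stripped with Chelex 100 resin 2 h, supplemented CaCl2 82.5 mg/L, MgCl2 94.1 mg/L, ZnSO4 10 μM, pH 7.3. 2-fold compound dilutions; 2-8×10^5 CFU/mL; 37° C; Acinetobacter 20-24 h, Pseudomonas 16-20 h. Visual MIC.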

P. aeruginosa ATCC 27853 = assay: as above; format: cell-based; settings: Pseudomonas aeruginosa, ATCC27853, read-out: Minimum Inhibitory Concentration, P. aeruginosa ATCC 27853
In short: as §2

[2] = test system: A. baumannii CDC-0045 producing TEM-1D, OXA-23, and OXA-69; assay: as above; format: cell-based; settings: Acinetobacter baumannii, read-out: Minimum Inhibitory Concentration, CDC-0045
P. aeruginosa CDC-0110 = assay: as above; format: cell-based; settings: Pseudomonas aeruginosa, CDC0110, read-out: Minimum Inhibitory Concentration, P. aeruginosa CDC-0110
In short: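 CLSI broth microdilution in iron-depleted cation-adjusted Mueller Hinton broth (Chelex-treated, Ca, Mg, Zn restored, pH 7.3), inoculum 2-8×10^5 CFU/mL, 2-fold compound dilutions. Pseudomonas plates incubated 16-20 h at 37 °C; MIC read visually as lowest concentration without growth.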

CS(=O)(=O)N1CCN(C(=O)N[C@@H](C(=O)N[C@H]2Cc3ccc(F)c(C(=O)O)c3OB2O)c2cc(F)c(O)c(O)c2Cl)C1=O (single isomer, unassigned) [Example 189]
EC50 [1]: 10 to 30 µM
EC50 (N. gonorrhoeae PBP2): 10 to 30 µM
MIC (A. baumannii ATCC 19606): 0.5 to 1 µg/mL (≈ 0.79 to 1.58 µM)
MIC (P. aeruginosa ATCC 27853): 0.5 to 1 µg/mL (≈ 0.79 to 1.58 µM)
MIC [2]: 2 to 4 µg/mL (≈ 3.16 to 6.32 µM)
MIC (P. aeruginosa CDC-0110): 0.5 to 1 µg/mL (≈ 0.79 to 1.58 µM)

Nc1nc(/C(=N/OC[C@H](NC(=O)c2ccc(O)c(O)c2Cl)C(=O)O)C(=O)N[C@H]2Cc3cccc(C(=O)O)c3OB2O)cs1 [Example 6, (R)-3-((Z)-2-(2-aminothiazol-4-yl)-2-(((S)-2-carboxy-2-(2-chloro-3,4-dihydroxybenzamido)ethoxy)imino)acetamido)-2-hydroxy-3,4-dihydro-2H-benzo[e][1,2]oxaborinine-8-carboxylic acid]
EC50 [1]: > 100 µM
MIC (A. baumannii ATCC 19606): 32 to 64 µg/mL (≈ 50.5 to 101 µM)
MIC (P. aeruginosa ATCC 27853): 0.5 to 1 µg/mL (≈ 0.789 to 1.58 µM)
MIC [2]: 32 to 64 µg/mL (≈ 50.5 to 101 µM)
MIC (P. aeruginosa CDC-0110): 2 to 4 µg/mL (≈ 3.16 to 6.31 µM)

NCCCN1CCN(C(=O)N[C@@H](C(=O)N[C@H]2Cc3cc(Cl)c(F)c(C(=O)O)c3OB2O)c2c(F)cc(O)c(O)c2Cl)C(=O)C1=O [Example 190, (R)-3-((R)-2-(4-(3-aminopropyl)-2,3-dioxopiperazine-1-carboxamido)-2-(2-chloro-6-fluoro-3,4-dihydroxyphenyl)acetamido)-6-chloro-7-fluoro-2-hydroxy-3,4-dihydro-2H-benzo[e][1,2]oxaborinine-8-carboxylic acid]
EC50 [1]: > 100 µM
EC50 (N. gonorrhoeae PBP2): > 100 µM
MIC (A. baumannii ATCC 19606): > 128 µg/mL
MIC (P. aeruginosa ATCC 27853): 2 to 4 µg/mL (≈ 2.97 to 5.93 µM)
MIC [2]: > 128 µg/mL
MIC (P. aeruginosa CDC-0110): 2 to 4 µg/mL (≈ 2.97 to 5.93 µM)

CCN1CCN(C(=O)N[C@@H](C(=O)N[C@H]2Cc3cc(Cl)c(F)c(C(=O)O)c3OB2O)c2c(F)cc(O)c(O)c2Cl)C(=O)C1=O [Example 191, (R)-6-chloro-3-((R)-2-(2-chloro-6-fluoro-3,4-dihydroxyphenyl)-2-(4-ethyl-2,3-dioxopiperazine-1-carboxamido)acetamido)-7-fluoro-2-hydroxy-3,4-dihydro-2H-benzo[e][1,2]oxaborinine-8-carboxylic acid]
EC50 [1]: 30 to 100 µM
EC50 (N. gonorrhoeae PBP2): 30 to 100 µM
MIC (A. baumannii ATCC 19606): 8 to 16 µg/mL (≈ 12.4 to 24.8 µM)
MIC (P. aeruginosa ATCC 27853): 2 to 4 µg/mL (≈ 3.1 to 6.2 µM)
MIC [2]: > 128 µg/mL
MIC (P. aeruginosa CDC-0110): 2 to 4 µg/mL (≈ 3.1 to 6.2 µM)

CS(=O)(=O)N1CCN(C(=O)NC(C(=O)N[C@H]2Cc3ccc(F)c(C(=O)O)c3OB2O)c2c(Cl)cc(O)c(O)c2F)C1=O (stereo partly drawn) [Example 208, (3R)-3-(2-(6-chloro-2-fluoro-3,4-dihydroxyphenyl)-2-(3-(methylsulfonyl)-2-oxoimidazolidine-1-carboxamido)acetamido)-7-fluoro-2-hydroxy-3,4-dihydro-2H-benzo[e][1,2]oxaborinine-8-carboxylic acid]
EC50 [1]: 30 to 100 µM
MIC (A. baumannii ATCC 19606): 2 to 4 µg/mL (≈ 3.16 to 6.32 µM)
MIC (P. aeruginosa ATCC 27853): 2 to 4 µg/mL (≈ 3.16 to 6.32 µM)
MIC [2]: > 128 µg/mL
MIC (P. aeruginosa CDC-0110): 8 to 16 µg/mL (≈ 12.6 to 25.3 µM)

CCN1CCN(C(=O)N[C@H](C(=O)N[C@H]2Cc3ccc(F)c(C(=O)O)c3OB2O)c2ccc(O)c(O)c2)C(=O)C1=O [Example 210, (R)-3-((S)-2-(3,4-dihydroxyphenyl)-2-(4-ethyl-2,3-dioxopiperazine-1-carboxamido)acetamido)-7-fluoro-2-hydroxy-3,4-dihydro-2H-benzo[e][1,2]oxaborinine-8-carboxylic acid]
EC50 [1]: > 100 µM
MIC (A. baumannii ATCC 19606): > 128 µg/mL
MIC (P. aeruginosa ATCC 27853): > 128 µg/mL
MIC [2]: > 128 µg/mL
MIC (P. aeruginosa CDC-0110): > 128 µg/mL

CCN1CCN(C(=O)N[C@@H](C(=O)N[C@H]2Cc3ccc(F)c(C(=O)O)c3OB2O)c2ccc(O)c(O)c2)C(=O)C1=O [Example 211, (R)-3-((R)-2-(3,4-dihydroxyphenyl)-2-(4-ethyl-2,3-dioxopiperazine-1-carboxamido)acetamido)-7-fluoro-2-hydroxy-3,4-dihydro-2H-benzo[e][1,2]oxaborinine-8-carboxylic acid]
EC50 [1]: 30 to 100 µM
MIC (A. baumannii ATCC 19606): 2 to 4 µg/mL (≈ 3.58 to 7.16 µM)
MIC (P. aeruginosa ATCC 27853): 8 to 16 µg/mL (≈ 14.3 to 28.7 µM)
MIC [2]: > 128 µg/mL
MIC (P. aeruginosa CDC-0110): 2 to 4 µg/mL (≈ 3.58 to 7.16 µM)

NCCN1CCN(C(=O)N[C@@H](C(=O)N[C@H]2Cc3ccc(F)c(C(=O)O)c3OB2O)c2c(F)c(F)c(O)c(O)c2Cl)C(=O)C1=O [Example 226, (R)-3-((R)-2-(4-(2-aminoethyl)-2,3-dioxopiperazine-1-carboxamido)-2-(2-chloro-5,6-difluoro-3,4-dihydroxyphenyl)acetamido)-7-fluoro-2-hydroxy-3,4-dihydro-2H-benzo[e][1,2]oxaborinine-8-carboxylic acid]
EC50 [1]: > 100 µM
MIC (A. baumannii ATCC 19606): 0.5 to 1 µg/mL (≈ 0.777 to 1.55 µM)
MIC (P. aeruginosa ATCC 27853): 0.5 to 1 µg/mL (≈ 0.777 to 1.55 µM)
MIC [2]: 8 to 16 µg/mL (≈ 12.4 to 24.9 µM)
MIC (P. aeruginosa CDC-0110): 0.5 to 1 µg/mL (≈ 0.777 to 1.55 µM)
